{"source": "patent US20160368992A1", "about": "“A METHOD OF INCREASING GIPCR SIGNALIZATION IN THE CELLS OF A SCOLIOTIC SUBJECT” (CHU SAINTE-JUSTINE, priority 2013, published 2016)", "key": {"Gs protein": {"test_system": "Gs protein", "assay": "Immunoprecipitation/Western blot: Gs protein tyrosine phosphorylation and association with receptors in MC3T3-E1 cells", "format": "cell-based", "from_the_text": "Taken into account these considerations and having observed that genetic deletion of OPN inversely influenced response to Gi and Gs stimulation (FIG. 1), it was of interest to examine the effect of OPN on the functional and phosphorylation status of Gs protein and on its interaction with receptors. For this purpose, cells were subjected to isoproterenol and desmopressin in the presence of rOPN or PBS. As expected, response to isoproterenol was higher in rOPN than in PBS-treated cells."}, "[1]": {"test_system": "MOR, LPA1R, MT2R receptors and Gi1, Gi2, Gi3 proteins", "assay": "Western blot and qPCR for expression of GPCRs and Gi protein isoforms in MC3T3-E1 cells", "format": "cell-based", "protocol": "Thermo-Script™ reverse transcriptase (Invitrogen) was used to reverse transcribe mRNA into cDNA ([…] total concentration). Several dilutions were tested to choose the concentration that yielded the most efficient amplification. The human primers used were the following: […]\nEach amplification was performed in duplicate using […] of diluted cDNA, […] of 3 mM primer solution and […] of 2× QuantiTect™ SYBR Green PCR Master Mix (QIAGEN Inc, Ontario, Canada). All reaction mixes were run on Mx3000P™ system from Stratagene (Agilent Technologies Company, La Jolla, Calif.) and analyzed with MxPro™ QPCR Software also from Stratagene. Relative quantification was calculated with the delta CT method using β-actin as the endogenous control.\nGi proteins isoforms expression levels were determined using Western blot technique. MC3T3-E1 cells were treated with PBS or rOPN 0.5 μg/ml overnight (R&D systems Inc., Minneapolis, USA). These cells were washed with cold PBS 1× then lysed in RIPA buffer (25 mM Tris.Hcl pH7.4, 150 mM NaCl, 1% NP-40, 1% sodium deoxycholate, 0.1% SDS) added with 5 mM NaVO4 and protease inhibitor cocktail (Roche molecular Biochemicals, Mannheim, Germany). Immunoblots were performed with primary antibodies directed specifically against Gi1, Gi2, Gi3, Gs, Phosphoserine, integrin β1 (Santa Cruz Biotechnology, Santa Cruz, Calif.), Mu opioid receptor (MOR) (abcam Toronto, ON, Canada), Lysophosphatidic acid receptor 1 (LPAR1) (assaybiotech Inc., USA), melatonin receptor 2 (MT2) and peroxidase-conjugated secondary antibody. […]\nGiven that the level of GPCRs is critical for their signaling, it was of interest to examine whether the defective GiPCR signaling induced by OPN is the consequence of a quantitative reduction of these receptors. For this purpose, MC3T3-E1 cells were treated with PBS or rOPN and the cell lysates were analyzed by Western blot for the expression of three different GPCRs; including mu-opioid (MOR), lysophosphatidic acid type 1 (LPA1R) and melatonin type 2 (MT2R) receptors. […]"}, "[2]": {"test_system": "Gi proteins with MO, MT2 or β1 integrin receptors", "assay": "Immunoprecipitation/Western blot: interaction of Gi proteins with GPCR and β1 integrin in MC3T3-E1 cells", "format": "cell-based", "protocol": "MC3T3-E1 cells were treated with PBS or rOPN (0.5 μg/ml) then the whole cell proteins (1 mg) were incubated with anti-MOR (Abcam Toronto, ON, Canada), anti-MT2 or anti-[…] (Santa Cruz Biotechnology), plus protein G beads for immunoprecipitation (IP) at 4° C. overnight. Purified proteins were loaded on 10% gel after IP, then, processed for gel transferring to PVDF membrane and 5% BSA blocking. Membranes were exposed to antibodies specific for Gi1, Gi2, Gi3, MOR, MT2 and β1 integrin at 4° C. overnight and, subsequently, treated with secondary antibody at room temperature for 1 h. Bands were visualized using SuperSignal™ chemiluminescent (Pierce, Rockford, Ill.) and quantified by densitometric scanning.\nIt is notable that when different receptors signal through the same subfamily of G proteins, they share the same limited pool of G proteins. Therefore, if OPN enhances the recruitment of Gi proteins in the β1 integrin complex, reduction in the amount of Gi proteins in GiPCR complex would be expected. To evaluate this possibility, cells lysates were immunoprecipitated with antibodies against MO, MT2 or β1 integrin receptors, and the presence of Gi proteins in each precipitate was examined by Western blot using antibodies specific for Gi1, Gi2 or Gi3 isoform. […]"}, "GiPCR signaling [3]": {"test_system": "GiPCR signaling", "assay": "CDS (CellKey) functional evaluation of Gi protein-mediated receptor signaling in primary mouse osteoblasts", "format": "cell-based, mice", "conditions": "osteoblasts from bipedal CD44 knockout (CD44-/-) mice"}, "Gi1, Gi2, Gi3 proteins": {"test_system": "Gi1, Gi2, Gi3 proteins", "assay": "Immunoprecipitation/Western blot: phosphorylation of Gi proteins in MC3T3-E1 cells", "format": "cell-based", "conditions": "rOPN vs PBS", "protocol": "Given that the defective GiPCR signaling associated with idiopathic scoliosis has causatively been related to increased phosphorylation of Gi proteins (Moreau et al., 2004), it was of interest to examined whether OPN influences the phosphorylation status of Gi proteins. Accordingly, MC3T3-E1 cells were treated with rOPN, then cell lysates were immunoprecipitated with antibodies against Gi1, Gi2 or Gi3 protein isoforms, and the phosphorylation level was examined by Western blot using anti-phospho serine/threonine or anti-tyrosine antibodies. […] However, band density was higher in OPN-treated cells.\nTo support the involvement of α5β1 integrin in this process, cells were pre-treated with antibody against α5β1 integrin prior to rOPN treatment.\nCell extracts prepared from MC3T3-E1 that had been treated with rOPN in the presence or absence of an inhibitor specific for each kinase were subjected to immunoprecipitation and Western blot analysis. […] However, both serine and tyrosine phosphorylation were attenuated by inhibitors of FAK (FAK inhibitor-14), Scr (PP2), CaMKII (KN93), PI3K (wortmannin-data not shown), MEK (PD98059), ERK1/2 (FR180204), JNK (SP60125) and P38 (SB203580)."}, "GiPCR signaling [4]": {"test_system": "GiPCR signaling", "assay": "GiPCR signaling after LPA stimulation in osteoblasts of AIS patients (CD44 CT SNP) and healthy controls in the presence of rOPN", "format": "cell-based, human", "conditions": "same rOPN treatment", "protocol": "Next, the effect of the CT SNP on GiPCR signaling was assessed. Osteoblasts from severe AIS patients (who underwent surgery) carrying the CT SNP and osteoblasts from healthy controls with wild type CD44 (CC) were stimulated with LPA in the presence of recombinant OPN (rOPN). The GiPCR defective signaling effect in response to the same rOPN treatment was […] 50% more in mutated CD44 (CT) osteoblasts as compared to in wild type CD44 (CC) osteoblasts (FIG. 9 A). […] The CT mutation in CD44 thus increases the sensitivity of scoliotic patients to the damaging effects of OPN on GiPCR signaling and thereby contributes the more severe phenotype observed in these subjects."}, "[5]": {"conditions": "rOPN-treated vs PBS-treated cells"}}, "data": [{"substance": "rOPN: exogenous recombinant osteopontin (R&D systems)", "values": [{"measurement": "presence of Gs proteins in the immunoprecipitates of MT2 and MO receptors", "setting": "Gs protein; rOPN treatment", "value": "enhances"}, {"measurement": "Gs protein immunoprecipitates probed with anti-tyrosine antibody", "setting": "Gs protein; [5]", "value": "higher intensity"}, {"measurement": "level of MOR, LPA1R and MT2R receptors", "setting": "[1]; Western blot, rOPN vs PBS", "value": "not modified"}, {"measurement": "quantity of Gi proteins (Gi1, Gi2, Gi3)", "setting": "[1]; immunoblotting, relative to PBS-treated cells", "value": "no significant effect"}, {"measurement": "mRNA expression of Gi isoforms", "setting": "[1]; qPCR, PBS- vs rOPN-treated cells", "value": "no significant difference"}, {"measurement": "amount of Gi protein isoforms in the β1 integrin precipitates", "setting": "[2]; following rOPN treatment", "value": "elevated"}, {"measurement": "relative amount of Gi isoforms immunoprecipitated with MO or MT2 receptor", "setting": "[2]; [5]", "value": "reduced"}, {"measurement": "response to DAMGO and oxymethazolin after rOPN treatment", "setting": "GiPCR signaling [3]", "value": "concentration-dependent decrease in response"}, {"measurement": "phosphorylated serine and tyrosine residues in Gi precipitates (band density)", "setting": "Gi1, Gi2, Gi3 proteins", "value": "higher"}, {"measurement": "additional reduction of GiPCR signaling in mutated CD44 (CT) vs wild type CD44 (CC) osteoblasts", "setting": "GiPCR signaling [4]", "value": 50, "unit": "%"}]}]}
